Measured values reported in the supplement of paper PMC10307832.

How the values were obtained:
Experiment in all cases: relative viability (nuclei count vs DMSO), 5 days (fraction); higher = more cells survive
A-427 = test system: A-427
Outline: (§1)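 A single step with final 0.05% Triton X-100, 1% formaldehyde and 1 ug/ml Hoechst fixed the cells and stained nuclei 5 days after treatment. Lung cancer cell lines in 1536-well plates had been treated by pin tool the day after seeding with one drug alone or a fixed anchor-drug dose plus five library-drug doses (not always all listed) in √10 steps, and nuclei were counted on 4× images. Relative viability is the ratio of nuclei in treated wells to nuclei in vehicle wells, taken as the median of duplicate plates.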

ABC-1 = test system: ABC-1
Outline: as §1

COR-L23 = test system: COR-L23
Outline: as §1

EMC-BAC-2 = test system: EMC-BAC-2
Outline: as §1

HARA = test system: HARA
Outline: as §1

HOP-62 = test system: HOP-62
Outline: as §1

LK-2 = test system: LK-2
Outline: as §1

LXF-289 = test system: LXF-289
Outline: as §1

NCI-H1792 = test system: NCI-H1792
Outline: as §1

NCI-H1793 = test system: NCI-H1793
Outline: as §1

NCI-H1944 = test system: NCI-H1944
Outline: as §1

NCI-H1993 = test system: NCI-H1993
Outline: as §1

NCI-H2009 = test system: NCI-H2009
Outline: as §1

NCI-H2170 = test system: NCI-H2170
Outline: as §1

NCI-H2228 = test system: NCI-H2228
Outline: as §1

NCI-H3122 = test system: NCI-H3122
Outline: as §1

NCI-H596 = test system: NCI-H596
Outline: as §1

NCI-H727 = test system: NCI-H727
Outline: as §1

PC-3 [JPC-3] = test system: PC-3 [JPC-3]
Outline: as §1

SK-LU-1 = test system: SK-LU-1
Outline: as §1

SK-MES-1 = test system: SK-MES-1
Outline: as §1

SW 1573 = test system: SW 1573
Outline: as §1

CC1(C)CCC(c2ccc(Cl)cc2)=C(CN2CCN(c3ccc(C(=O)NS(=O)(=O)c4ccc(N[C@H](CCN5CCOCC5)CSc5ccccc5)c(S(=O)(=O)C(F)(F)F)c4)cc3)CC2)C1 [Navitoclax] + CS(=O)(=O)CCNCc1ccc(-c2ccc3ncnc(Nc4ccc(OCc5cccc(F)c5)c(Cl)c4)c3c2)o1 [Lapatinib] (partner 2 µM)
relative viability (A-427; first compound 0.005 µM): 1.05 | relative viability (A-427; first compound 0.01581 µM): 0.956 | relative viability (A-427; first compound 0.05 µM): 0.825 | relative viability (A-427; first compound 0.1581 µM): 1.05 | relative viability (A-427; first compound 0.5 µM): 1.06 | relative viability (ABC-1; first compound 0.005 µM): 1.1 | relative viability (ABC-1; first compound 0.01581 µM): 1.46 | relative viability (ABC-1; first compound 0.05 µM): 1.09 | relative viability (ABC-1; first compound 0.1581 µM): 1.19 | relative viability (ABC-1; first compound 0.5 µM): 1.05 | relative viability (COR-L23; first compound 0.005 µM): 0.919 | relative viability (COR-L23; first compound 0.01581 µM): 1.25 | relative viability (COR-L23; first compound 0.05 µM): 1.33 | relative viability (COR-L23; first compound 0.1581 µM): 0.705 | relative viability (COR-L23; first compound 0.5 µM): 0.922 | relative viability (EMC-BAC-2; first compound 0.005 µM): 0.895 | relative viability (EMC-BAC-2; first compound 0.01581 µM): 0.893 | relative viability (EMC-BAC-2; first compound 0.05 µM): 0.884 | relative viability (EMC-BAC-2; first compound 0.1581 µM): 0.963 | relative viability (EMC-BAC-2; first compound 0.5 µM): 0.943 | relative viability (HARA; first compound 0.005 µM): 0.686 | relative viability (HARA; first compound 0.01581 µM): 1 | relative viability (HARA; first compound 0.05 µM): 0.799 | relative viability (HARA; first compound 0.1581 µM): 0.728 | relative viability (HARA; first compound 0.5 µM): 1 | relative viability (HOP-62; first compound 0.005 µM): 0.924 | relative viability (HOP-62; first compound 0.01581 µM): 1.12 | relative viability (HOP-62; first compound 0.05 µM): 0.777 | relative viability (HOP-62; first compound 0.1581 µM): 0.947 | relative viability (HOP-62; first compound 0.5 µM): 0.972 | relative viability (LK-2; first compound 0.005 µM): 0.802 | relative viability (LK-2; first compound 0.01581 µM): 1.08 | relative viability (LK-2; first compound 0.05 µM): 1.04 | relative viability (LK-2; first compound 0.1581 µM): 0.886 | relative viability (LK-2; first compound 0.5 µM): 1.05 | relative viability (LXF-289; first compound 0.005 µM): 0.9 | relative viability (LXF-289; first compound 0.01581 µM): 0.91 | relative viability (LXF-289; first compound 0.05 µM): 0.864 | relative viability (LXF-289; first compound 0.1581 µM): 0.901 | relative viability (LXF-289; first compound 0.5 µM): 0.902 | relative viability (NCI-H1792; first compound 0.005 µM): 0.901 | relative viability (NCI-H1792; first compound 0.01581 µM): 1.05 | relative viability (NCI-H1792; first compound 0.05 µM): 0.662 | relative viability (NCI-H1792; first compound 0.1581 µM): 0.938 | relative viability (NCI-H1792; first compound 0.5 µM): 0.878 | relative viability (NCI-H1793; first compound 0.005 µM): 0.601 | relative viability (NCI-H1793; first compound 0.01581 µM): 0.779 | relative viability (NCI-H1793; first compound 0.05 µM): 0.467 | relative viability (NCI-H1793; first compound 0.1581 µM): 0.843 | relative viability (NCI-H1793; first compound 0.5 µM): 0.557 | relative viability (NCI-H1944; first compound 0.005 µM): 0.869 | relative viability (NCI-H1944; first compound 0.01581 µM): 0.871 | relative viability (NCI-H1944; first compound 0.05 µM): 0.629 | relative viability (NCI-H1944; first compound 0.1581 µM): 0.788 | relative viability (NCI-H1944; first compound 0.5 µM): 0.833 | relative viability (NCI-H1993; first compound 0.005 µM): 0.849 | relative viability (NCI-H1993; first compound 0.01581 µM): 0.855 | relative viability (NCI-H1993; first compound 0.05 µM): 0.756 | relative viability (NCI-H1993; first compound 0.1581 µM): 0.795 | relative viability (NCI-H1993; first compound 0.5 µM): 0.883 | relative viability (NCI-H2009; first compound 0.005 µM): 0.938 | relative viability (NCI-H2009; first compound 0.01581 µM): 1.14 | relative viability (NCI-H2009; first compound 0.05 µM): 0.953 | relative viability (NCI-H2009; first compound 0.1581 µM): 0.9 | relative viability (NCI-H2009; first compound 0.5 µM): 0.998 | relative viability (NCI-H2170; first compound 0.005 µM): 0.275 | relative viability (NCI-H2170; first compound 0.01581 µM): 0.283 | relative viability (NCI-H2170; first compound 0.05 µM): 0.312 | relative viability (NCI-H2170; first compound 0.1581 µM): 0.285 | relative viability (NCI-H2170; first compound 0.5 µM): 0.26 | relative viability (NCI-H2228; first compound 0.005 µM): 1.09 | relative viability (NCI-H2228; first compound 0.01581 µM): 0.9 | relative viability (NCI-H2228; first compound 0.05 µM): 1.14 | relative viability (NCI-H2228; first compound 0.1581 µM): 0.893 | relative viability (NCI-H2228; first compound 0.5 µM): 1.03 | relative viability (NCI-H3122; first compound 0.005 µM): 0.998 | relative viability (NCI-H3122; first compound 0.01581 µM): 0.991 | relative viability (NCI-H3122; first compound 0.05 µM): 1.03 | relative viability (NCI-H3122; first compound 0.1581 µM): 0.892 | relative viability (NCI-H3122; first compound 0.5 µM): 1.02 | relative viability (NCI-H596; first compound 0.005 µM): 1.12 | relative viability (NCI-H596; first compound 0.01581 µM): 1.23 | relative viability (NCI-H596; first compound 0.05 µM): 0.955 | relative viability (NCI-H596; first compound 0.1581 µM): 1.28 | relative viability (NCI-H596; first compound 0.5 µM): 1.06 | relative viability (NCI-H727; first compound 0.005 µM): 0.925 | relative viability (NCI-H727; first compound 0.01581 µM): 1.01 | relative viability (NCI-H727; first compound 0.1581 µM): 0.982 | relative viability (NCI-H727; first compound 0.5 µM): 0.657 | relative viability (PC-3 [JPC-3]; first compound 0.005 µM): 0.403 | relative viability (PC-3 [JPC-3]; first compound 0.01581 µM): 0.438 | relative viability (PC-3 [JPC-3]; first compound 0.05 µM): 0.441 | relative viability (PC-3 [JPC-3]; first compound 0.1581 µM): 0.474 | relative viability (PC-3 [JPC-3]; first compound 0.5 µM): 0.487 | relative viability (SK-LU-1; first compound 0.005 µM): 0.849 | relative viability (SK-LU-1; first compound 0.01581 µM): 1.12 | relative viability (SK-LU-1; first compound 0.05 µM): 0.886 | relative viability (SK-LU-1; first compound 0.1581 µM): 0.896 | relative viability (SK-LU-1; first compound 0.5 µM): 0.753 | relative viability (SK-MES-1; first compound 0.005 µM): 0.462 | relative viability (SK-MES-1; first compound 0.01581 µM): 0.552 | relative viability (SK-MES-1; first compound 0.05 µM): 0.497 | relative viability (SK-MES-1; first compound 0.1581 µM): 0.458 | relative viability (SK-MES-1; first compound 0.5 µM): 0.523 | relative viability (SW 1573; first compound 0.005 µM): 1.22 | relative viability (SW 1573; first compound 0.01581 µM): 1.08 | relative viability (SW 1573; first compound 0.05 µM): 1.01 | relative viability (SW 1573; first compound 0.1581 µM): 1.04 | relative viability (SW 1573; first compound 0.5 µM): 1.09
